According to ChEMBL document CHEMBL1201862, “PubChem BioAssay data set” (2004):
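The compound was tested at five concentrations on cells cultured in 96-well plates, with a 48-hour exposure period. Abbreviation: GI50, concentration required for 50% inhibition of growth.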 Activity calls are given as the source filed them. Cut-off read from the data, not from the text of the source: active = GI50 up to about 1.1 µM and inactive = higher.

Key:
Assay in all cases: inhibition of tumour cell growth, NCI panel, 48 h
Malme-3M = test system: Malme-3M
CAKI-1 = test system: CAKI-1
M14 = test system: M14
SK-MEL-5 = test system: SK-MEL-5
U-251 = test system: U-251
EKVX = test system: EKVX
NCI-H23 = test system: NCI-H23
LOX IMVI = test system: LOX IMVI
Hs-578T = test system: Hs-578T
UACC-62 = test system: UACC-62
HCT-116 = test system: HCT-116
OVCAR-8 = test system: OVCAR-8
T47D = test system: T47D
UACC-257 = test system: UACC-257
MCF7 = test system: MCF7
UO-31 = test system: UO-31
SF-295 = test system: SF-295
MDA-N = test system: MDA-N
SF-268 = test system: SF-268
MDA-MB-231 = test system: MDA-MB-231
OVCAR-3 = test system: OVCAR-3
786-0 = test system: 786-0
OVCAR-4 = test system: OVCAR-4
RXF 393 = test system: RXF 393
NCI-H460 = test system: NCI-H460
HCC 2998 = test system: HCC 2998
BT-549 = test system: BT-549
HCT-15 = test system: HCT-15
TK-10 = test system: TK-10
CCRF-CEM = test system: CCRF-CEM
NCI-H226 = test system: NCI-H226
SNB-75 = test system: SNB-75
SF-539 = test system: SF-539
SK-MEL-2 = test system: SK-MEL-2
KM12 = test system: KM12
ACHN = test system: ACHN
HL-60 = test system: HL-60
SK-OV-3 = test system: SK-OV-3
SNB-19 = test system: SNB-19
NCI/ADR-RES = test system: NCI/ADR-RES
DU-145 = test system: DU-145
PC-3 = test system: PC-3
A549 = test system: A549
A498 = test system: A498
SN12C = test system: SN12C
COLO 205 = test system: COLO 205
MOLT-4 = test system: MOLT-4
IGROV-1 = test system: IGROV-1
HOP-92 = test system: HOP-92
MDA-MB-435 = test system: MDA-MB-435
OVCAR-5 = test system: OVCAR-5
K562 = test system: K562
HT-29 = test system: HT-29
SK-MEL-28 = test system: SK-MEL-28
NCI-H522 = test system: NCI-H522
RPMI-8226 = test system: RPMI-8226
SW-620 = test system: SW-620
HOP-62 = test system: HOP-62

Measured: GI50

CCN(CC)C1=Nc2ccccc2-n2c(C)cnc2C1
> 100 µM: HCT-15
inactive: Malme-3M > 100 µM | CAKI-1 > 100 µM | M14 > 100 µM | SK-MEL-5 > 100 µM | U-251 > 100 µM | EKVX > 100 µM | NCI-H23 > 100 µM | LOX IMVI > 100 µM | Hs-578T > 100 µM | UACC-62 > 100 µM | HCT-116 > 100 µM | OVCAR-8 > 100 µM | T47D > 100 µM | UACC-257 > 61.5 µM | MCF7 > 100 µM | UO-31 > 88.7 µM | SF-295 > 100 µM | MDA-N > 100 µM | SF-268 > 100 µM | MDA-MB-231 > 100 µM | OVCAR-3 > 100 µM | 786-0 > 100 µM | OVCAR-4 > 100 µM | RXF 393 > 100 µM | NCI-H460 > 100 µM | HCC 2998 > 100 µM | BT-549 > 100 µM | TK-10 > 100 µM | CCRF-CEM > 100 µM | NCI-H226 > 100 µM | SNB-75 > 100 µM | SF-539 > 100 µM | SK-MEL-2 > 100 µM | KM12 > 100 µM | ACHN > 100 µM | HL-60 > 100 µM | SK-OV-3 > 100 µM | SNB-19 > 100 µM | NCI/ADR-RES > 100 µM | DU-145 > 100 µM | PC-3 > 100 µM | A549 > 100 µM | A498 > 100 µM | SN12C > 100 µM | COLO 205 > 100 µM | MOLT-4 > 100 µM | IGROV-1 > 100 µM | HOP-92 > 100 µM | MDA-MB-435 > 100 µM | OVCAR-5 > 100 µM | K562 > 100 µM | HT-29 > 100 µM | SK-MEL-28 > 100 µM | NCI-H522 > 100 µM | RPMI-8226 95.5 µM | SW-620 > 100 µM

Cn1ncc2c(NCCc3ccccc3)nc(Cl)nc21
inactive: Malme-3M 58.9 µM | CAKI-1 28.1 µM | M14 15 µM | SK-MEL-5 17.6 µM | U-251 30.2 µM | EKVX 1.75 µM | NCI-H23 24.8 µM | LOX IMVI 16.7 µM | Hs-578T 8.93 µM | UACC-62 5.97 µM | HCT-116 27.8 µM | OVCAR-8 27.2 µM | T47D 11.4 µM | UACC-257 2.48 µM | MCF7 30 µM | UO-31 19 µM | SF-295 16.4 µM | HOP-62 24.4 µM | MDA-N 23.2 µM | SF-268 38.2 µM | MDA-MB-231 3.97 µM | OVCAR-3 33.3 µM | 786-0 23.4 µM | OVCAR-4 18.8 µM | RXF 393 17.1 µM | NCI-H460 15.6 µM | HCC 2998 18.8 µM | BT-549 23.5 µM | TK-10 20.9 µM | NCI-H226 21.5 µM | SNB-75 21.1 µM | SK-MEL-2 10.7 µM | KM12 26.2 µM | ACHN 28.6 µM | SK-OV-3 19.5 µM | SNB-19 44.9 µM | NCI/ADR-RES 16.4 µM | DU-145 44.9 µM | PC-3 17.9 µM | A549 20.4 µM | A498 17.7 µM | SN12C 44.6 µM | COLO 205 17.3 µM | MOLT-4 14.7 µM | IGROV-1 33.1 µM | HOP-92 15.3 µM | MDA-MB-435 20.6 µM | OVCAR-5 14 µM | K562 17.6 µM | HT-29 14.7 µM | SK-MEL-28 28.7 µM | NCI-H522 21.9 µM | RPMI-8226 13.7 µM | SW-620 23.3 µM
25.4 µM: HCT-15

CC(C)(C)C1=CC(O)(c2c3ccccc3c(C3(O)C=C(C(C)(C)C)C(=O)C(C(C)(C)C)=C3)c3ccccc23)C=C(C(C)(C)C)C1=O
> 100 µM: HCT-15
inactive: Malme-3M > 100 µM | CAKI-1 > 100 µM | M14 > 100 µM | SK-MEL-5 > 100 µM | U-251 > 100 µM | EKVX > 100 µM | NCI-H23 > 100 µM | LOX IMVI > 100 µM | Hs-578T > 100 µM | UACC-62 > 100 µM | HCT-116 > 100 µM | OVCAR-8 > 100 µM | T47D > 100 µM | UACC-257 > 100 µM | MCF7 > 100 µM | UO-31 > 100 µM | SF-295 > 100 µM | HOP-62 > 100 µM | MDA-N > 100 µM | SF-268 > 100 µM | MDA-MB-231 27 µM | OVCAR-3 > 100 µM | 786-0 > 100 µM | OVCAR-4 > 100 µM | BT-549 > 100 µM | TK-10 > 100 µM | CCRF-CEM 50.2 µM | NCI-H226 > 100 µM | SNB-75 35.2 µM | SF-539 > 100 µM | SK-MEL-2 > 100 µM | KM12 > 100 µM | ACHN > 100 µM | HL-60 > 10 µM | SK-OV-3 > 100 µM | SNB-19 > 100 µM | NCI/ADR-RES > 100 µM | DU-145 > 100 µM | PC-3 > 100 µM | A549 > 100 µM | SN12C > 100 µM | COLO 205 > 100 µM | MOLT-4 48.2 µM | IGROV-1 > 100 µM | OVCAR-5 > 100 µM | K562 81.8 µM | HT-29 > 100 µM | SK-MEL-28 > 100 µM | NCI-H522 > 100 µM | RPMI-8226 58.3 µM | SW-620 > 100 µM
active: A498 0.116 µM | HOP-92 < 0.01 µM | MDA-MB-435 < 0.01 µM

CC(=O)O/C(=C(/C#N)C(=O)O)C1C(C(=O)O)C(c2ccccc2[N+](=O)[O-])C=C(c2ccco2)N1c1ccncc1 (stereo unspecified)
inactive: Malme-3M 8.43 µM | CAKI-1 4.3 µM | M14 2.87 µM | SK-MEL-5 2.94 µM | U-251 2.11 µM | EKVX 9.25 µM | NCI-H23 5.45 µM | LOX IMVI 1.91 µM | Hs-578T 8.93 µM | UACC-62 7.52 µM | HCT-116 1.52 µM | OVCAR-8 5.02 µM | T47D 6.73 µM | UACC-257 3.9 µM | UO-31 2.87 µM | SF-295 7.67 µM | HOP-62 7.82 µM | MDA-N 2.81 µM | SF-268 9.23 µM | MDA-MB-231 4.78 µM | OVCAR-3 2.94 µM | 786-0 2.82 µM | OVCAR-4 14.3 µM | NCI-H460 6.35 µM | HCC 2998 4.97 µM | BT-549 6.04 µM | TK-10 3.33 µM | CCRF-CEM 2.43 µM | NCI-H226 4.63 µM | SNB-75 6.38 µM | SF-539 1.95 µM | SK-MEL-2 9.25 µM | KM12 1.48 µM | ACHN 2.17 µM | HL-60 2.75 µM | SK-OV-3 11.6 µM | SNB-19 11.8 µM | NCI/ADR-RES 8.57 µM | DU-145 8.49 µM | PC-3 6.4 µM | A549 3.41 µM | A498 11.2 µM | SN12C 4.86 µM | COLO 205 3.41 µM | MOLT-4 2.54 µM | IGROV-1 1.12 µM | HOP-92 16 µM | MDA-MB-435 4.62 µM | OVCAR-5 7.89 µM | K562 2.31 µM | HT-29 1.61 µM | SK-MEL-28 10.4 µM | NCI-H522 2.09 µM | RPMI-8226 1.68 µM | SW-620 1.85 µM
1.71 µM: HCT-15
active: MCF7 1.03 µM

C/C=C\C(CC(=O)NCCC1CN(C(=O)c2ccccc2)c2ccccc21)CC(=O)OC (stereo unspecified)
> 100 µM: HCT-15
inactive: Malme-3M > 100 µM | CAKI-1 > 100 µM | M14 > 100 µM | SK-MEL-5 97.3 µM | U-251 > 100 µM | EKVX > 100 µM | NCI-H23 > 100 µM | Hs-578T > 100 µM | UACC-62 > 100 µM | HCT-116 > 100 µM | OVCAR-8 > 100 µM | T47D > 100 µM | UACC-257 > 100 µM | MCF7 > 100 µM | UO-31 > 100 µM | SF-295 > 100 µM | HOP-62 > 100 µM | MDA-N > 100 µM | SF-268 > 100 µM | MDA-MB-231 > 100 µM | OVCAR-3 > 100 µM | 786-0 > 100 µM | OVCAR-4 > 100 µM | RXF 393 > 100 µM | NCI-H460 > 100 µM | HCC 2998 > 100 µM | BT-549 > 100 µM | TK-10 > 100 µM | SNB-75 > 100 µM | SK-MEL-2 > 100 µM | KM12 > 100 µM | ACHN > 100 µM | SK-OV-3 > 100 µM | SNB-19 > 100 µM | NCI/ADR-RES > 100 µM | DU-145 > 100 µM | PC-3 > 100 µM | A549 > 100 µM | A498 > 100 µM | COLO 205 > 100 µM | MOLT-4 > 100 µM | IGROV-1 > 100 µM | HOP-92 > 100 µM | MDA-MB-435 > 100 µM | OVCAR-5 > 100 µM | K562 > 100 µM | HT-29 > 100 µM | SK-MEL-28 > 100 µM | NCI-H522 > 100 µM | RPMI-8226 > 100 µM | SW-620 > 100 µM
